Measurements as given in article PMC10781884 (Computational and Structural Biotechnology Journal, 2023).
Ends that are not written are not given here.

Each sequence was assayed on Micrococcus luteus (assay: Minimum inhibitory and minimum bactericidal concentrations). Settings: bacterium not named in the method sentence; Fig. 6 uses Micrococcus luteus.
Type: cell-based

**Q.** For KCFLRRRRSRA [Bc], which “minimum bactericidal concentrations (MBCs)” value is on record?
**A.** 20 µM

**Q.** With MKRRRKFSHFSFKRGY [Dr-2] as the sequence, how does the “minimum bactericidal concentrations (MBCs)” value read?
**A.** 10 µM

**Q.** RKWRSKRKQKSKKSSQRYM [Aq-2] was tested. Which “minimum bactericidal concentrations (MBCs)” value did it give?
**A.** 40 µM

**Q.** VKRRRRLAGFRTVRGY [Sc] was tested. Which “minimum bactericidal concentrations (MBCs)” value did it give?
**A.** 20 µM

What follows are sequences tested on Pseudomonas fluorescens (assay: Bactericidal activity of MPEG1 peptides, plate count). Settings: peptide 20 µM, 4 h.
Type: cell-based

**Q.** Which “effect on the propagation of P. fluorescens” value does the source give for RRHKSVKRDSRGLT [Nv] here?
**A.** slightly enhance the propagation

**Q.** How did the “effect on the propagation of P. fluorescens” value turn out when RRNRRRSRSSLSPTTSN [Aj-2] was run?
**A.** slightly enhance the propagation
